Here are results for one compound from patent publication US11844767B2, “Composition and methods for stimulating clearance of amyloid-beta protein” (Rush University Medical Center, priority 2016, dated 2023).

The test system of one assay is TFEB. As to conditions: alone and in conjunction with all-trans-retinoic acid; cited from earlier work.
Another assay has as its system LDLR. The assay is described as follows: Quantitative RT-PCR of LDLR expression in astrocytes. Format: cell-based, mouse. As for the experimental part:
The mRNA quantification was performed using the ABI-Prism7700 sequence detection system using SYBR Select master mix. The mRNA expression of the targeted genes was normalized to the level of Gapdh mRNA and data was processed by the ABI Sequence Detection System 1.6 software.

In the case of `Cc1ccc(C)c(OCCCC(C)(C)C(=O)O)c1` [GFB, gemfibrozil], the “TFEB in brain cells” value with TFEB is “capable of enhancing TFEB”. The “expression of LDLR” value with LDLR (PPARα(−/−) cells) is “not”; with LDLR (WT astrocytes) it was “increased”.
